From ChEMBL document CHEMBL5715954, “Silencing c-Myc translation as a therapeutic strategy through targeting PI3Kδ and CK1ε in hematological malignancies” (Blood, 2017) come the findings set out here.

What all share (set-up): scale not given: the % may be the effect or the level left
The target of experiment [1] is T1, Activin receptor type-1B (Homo sapiens) (UniProt P36896).
T1 sequence (whole entry): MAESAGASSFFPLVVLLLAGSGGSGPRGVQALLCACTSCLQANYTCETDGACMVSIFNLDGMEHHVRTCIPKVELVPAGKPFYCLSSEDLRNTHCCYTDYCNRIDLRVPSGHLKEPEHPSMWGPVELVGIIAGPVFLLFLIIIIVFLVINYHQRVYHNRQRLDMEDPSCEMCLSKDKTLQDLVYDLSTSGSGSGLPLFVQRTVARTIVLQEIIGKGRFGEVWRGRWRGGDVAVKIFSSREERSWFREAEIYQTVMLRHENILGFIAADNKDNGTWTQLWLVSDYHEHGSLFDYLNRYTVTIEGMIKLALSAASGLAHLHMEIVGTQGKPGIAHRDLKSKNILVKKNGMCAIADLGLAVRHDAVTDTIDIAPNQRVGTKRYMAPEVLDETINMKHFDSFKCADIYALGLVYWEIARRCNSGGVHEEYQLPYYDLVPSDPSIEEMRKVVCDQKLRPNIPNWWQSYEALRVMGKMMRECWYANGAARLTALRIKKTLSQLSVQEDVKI
Description: Inhibition of human ALK4 assessed as enzyme activity at 1 uM using casein as substrate preincubated for 20 mins followed by [gamma-33P]-ATP addition and measured after 120 mins by radiometric Hot-SpotSM Kinase assay relative to control.

Experiment [2] addresses Proto-oncogene tyrosine-protein kinase Src (Homo sapiens) (UniProt P12931). The experiment can be described thus: Inhibition of human c-Src assessed as enzyme activity at 1 uM using poly[Glu:Tyr] (4:1) as substrate preincubated for 20 mins followed by [gamma-33P]-ATP addition and measured after 120 mins by radiometric Hot-SpotSM Kinase assay relative to control.
Experiment [3] deals with Mitogen-activated protein kinase 1 (Homo sapiens) (UniProt P28482). Description: Inhibition of human ERK2 assessed as enzyme activity at 1 uM using myelin basic protein as substrate preincubated for 20 mins followed by [gamma-33P]-ATP addition and measured after 120 mins by radiometric Hot-SpotSM Kinase assay relative to control.
Experiment [4] deals with T2, G protein-coupled receptor kinase 3 (Homo sapiens) (UniProt P35626).
T2 sequence (whole entry): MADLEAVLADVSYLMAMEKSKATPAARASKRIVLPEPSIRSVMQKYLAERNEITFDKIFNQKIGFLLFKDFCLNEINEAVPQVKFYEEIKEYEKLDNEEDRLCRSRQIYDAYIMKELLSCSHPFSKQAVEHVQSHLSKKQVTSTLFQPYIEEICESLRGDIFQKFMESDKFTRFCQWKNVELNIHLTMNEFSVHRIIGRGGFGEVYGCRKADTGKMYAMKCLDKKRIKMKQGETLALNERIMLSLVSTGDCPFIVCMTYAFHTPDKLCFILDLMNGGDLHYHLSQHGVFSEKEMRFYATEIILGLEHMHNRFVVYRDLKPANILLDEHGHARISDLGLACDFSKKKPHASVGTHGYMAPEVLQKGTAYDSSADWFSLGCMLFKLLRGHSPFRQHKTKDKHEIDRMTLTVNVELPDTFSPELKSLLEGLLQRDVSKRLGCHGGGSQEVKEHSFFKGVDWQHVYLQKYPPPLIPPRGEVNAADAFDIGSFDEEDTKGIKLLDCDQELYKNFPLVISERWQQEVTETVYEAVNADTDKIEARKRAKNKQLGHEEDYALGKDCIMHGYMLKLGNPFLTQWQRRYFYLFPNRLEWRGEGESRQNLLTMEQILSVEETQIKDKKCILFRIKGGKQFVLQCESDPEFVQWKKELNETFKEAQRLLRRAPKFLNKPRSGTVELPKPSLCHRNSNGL
Description: Inhibition of human GRK3 assessed as enzyme activity at 1 uM using casein as substrate preincubated for 20 mins followed by [gamma-33P]-ATP addition and measured after 120 mins by radiometric Hot-SpotSM Kinase assay relative to control.

Experiment [5] concerns the target Glycogen synthase kinase-3 alpha (Homo sapiens) (UniProt P49840). The experiment can be described thus: Inhibition of human GSK3a assessed as enzyme activity at 1 uM using YRRAAVPPSPSLSRHSSPHQ(pS)EDEEE as substrate preincubated for 20 mins followed by [gamma-33P]-ATP addition and measured after 120 mins by radiometric Hot-SpotSM Kinase assay relative to control.

For experiment [6], the target named is T3, Tyrosine-protein kinase ITK/TSK (Homo sapiens) (UniProt Q08881).
T3 sequence (whole entry): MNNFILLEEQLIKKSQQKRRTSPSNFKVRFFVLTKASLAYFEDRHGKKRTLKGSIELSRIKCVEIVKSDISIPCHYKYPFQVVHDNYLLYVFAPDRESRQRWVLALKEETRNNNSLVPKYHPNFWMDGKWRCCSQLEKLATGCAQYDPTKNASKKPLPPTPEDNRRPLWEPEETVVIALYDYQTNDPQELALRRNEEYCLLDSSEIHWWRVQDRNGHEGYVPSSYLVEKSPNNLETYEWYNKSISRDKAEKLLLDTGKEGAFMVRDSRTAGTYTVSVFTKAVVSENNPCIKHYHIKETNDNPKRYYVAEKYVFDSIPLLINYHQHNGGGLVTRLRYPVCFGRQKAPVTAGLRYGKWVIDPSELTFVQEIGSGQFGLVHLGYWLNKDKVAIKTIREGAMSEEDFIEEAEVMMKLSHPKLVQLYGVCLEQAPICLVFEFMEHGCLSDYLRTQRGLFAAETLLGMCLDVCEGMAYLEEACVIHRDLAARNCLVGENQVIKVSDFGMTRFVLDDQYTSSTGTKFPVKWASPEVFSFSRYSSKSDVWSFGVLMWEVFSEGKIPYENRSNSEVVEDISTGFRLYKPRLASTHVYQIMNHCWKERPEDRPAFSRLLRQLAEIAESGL
Description: Inhibition of human ITK assessed as enzyme activity at 1 uM using myelin basic protein as substrate preincubated for 20 mins followed by [gamma-33P]-ATP addition and measured after 120 mins by radiometric Hot-SpotSM Kinase assay relative to control.

Experiment [7] concerns the target Mitogen-activated protein kinase kinase kinase kinase 5 (Homo sapiens) (UniProt Q9Y4K4). The experiment can be described thus: Inhibition of human KHS assessed as enzyme activity at 1 uM using myelin basic protein as substrate preincubated for 20 mins followed by [gamma-33P]-ATP addition and measured after 120 mins by radiometric Hot-SpotSM Kinase assay relative to control.

For experiment [8], the target named is Tyrosine-protein kinase Lck (Homo sapiens) (UniProt P06239). Description: Inhibition of human LCK assessed as enzyme activity at 1 uM using poly[Glu:Tyr] (4:1) as substrate preincubated for 20 mins followed by [gamma-33P]-ATP addition and measured after 120 mins by radiometric Hot-SpotSM Kinase assay relative to control.
The target in experiment [9] is Myosin-IIIa (Homo sapiens) (UniProt Q8NEV4). Description: Inhibition of human MYO3A assessed as enzyme activity at 1 uM using myelin basic protein as substrate preincubated for 20 mins followed by [gamma-33P]-ATP addition and measured after 120 mins by radiometric Hot-SpotSM Kinase assay relative to control.

Consider `C[C@H](Nc1ncnc2nc[nH]c12)c1cc2cccc(Cl)c2c(=O)n1-c1ccccc1`, for which the Activity in [1] worked out at 101%; in experiment [2] it was 86.7%; in experiment [3] it was 97.2%; in experiment [4], 91.5%; in [5], 95.3%; in [6], 94.5%. Further, the Activity was found to be 101% in experiment [7], 94.7% in [8] and 93.6% in experiment [9].

For `CC[C@H](Nc1ncnc2[nH]cnc12)c1nc2cccc(F)c2c(=O)n1-c1ccccc1`, the Activity in experiment [1] was 101%; in [2] it was 85.2%; in [3], 93.6%; in [4], 95.3%; in [5] it was 93.7%; in [6] it was 102%. Also, the Activity is 95.9% in experiment [7], 88.5% in experiment [8] and 91.7% in [9].

With `CC(C)Oc1ccc(-c2nn([C@@H](C)c3oc4ccc(F)cc4c(=O)c3-c3cccc(F)c3)c3ncnc(N)c23)cc1F` [UMBRALISIB], the Activity in experiment [1] was 106%; in experiment [2] it was 87.6%; in [3], 94.2%; in experiment [4], 99.6%; in [5] it was 104%; in [6] it was 97.3%. Moreover, the values for the Activity in experiment [7], in [8] and in [9] were 99.5%, 96.8% and 84.7%, respectively.
